US20240148821A1, “PHARMACEUTICAL USE OF CYCLIC PEPTIDE COMPOUND” (CHUGAI SEIYAKU KABUSHIKI KAISHA, priority 2021, published 2024)
Numbered stars: 1 amine (or outer) side, 2 acyl side, 3 side chain; on linkers, the order of the positions; unused ones are H or OH. Bridge positions count the residues as written; N and C are the ends. Square brackets hold non-standard residues; d marks the D form. Peptide text beside a SMILES is read from it. * marks the point of attachment. hPhe(3,5-F2-4-CF3) = N[C@@H](CCc1cc(F)c(C(F)(F)F)c(F)c1)C(=O)O; hPhe(3-Cl-4-CF3) = N[C@@H](CCc1ccc(C(F)(F)F)c(Cl)c1)C(=O)O; hPhe(3-F,4-CF3) = N[C@@H](CCc1ccc(C(F)(F)F)c(F)c1)C(=O)O; NMePhe(4-CF3) = CN[C@@H](Cc1ccc(C(F)(F)F)cc1)C(=O)O; X20 = Cc1cncc(C[C@@H](C(=O)[*:2])N(C)[*:1])c1; NMeAbu(4,4,4-F3) = CN[C@@H](CC(F)(F)F)C(=O)O; NMePhe(4-Cl) = CN[C@@H](Cc1ccc(Cl)cc1)C(=O)O; NMePhe(3-Me) = CN[C@@H](Cc1cccc(C)c1)C(=O)O; NMePhe(4-Me) = CN[C@@H](Cc1ccc(C)cc1)C(=O)O; NMeNle(6-CHF2) = CN[C@@H](CCCCC(F)F)C(=O)O; NMedβ3hAla = C[C@H](CC(=O)[*:2])N(C)[*:1]; NMeGly(cPent) = CN[C@H](C(=O)O)C1CCCC1; dβ3hPip = O=C(C[C@H]1CCCCN1[*:1])[*:2]; NMeGly(cBu) = CN[C@H](C(=O)O)C1CCC1; NMeCha = CN[C@@H](CC1CCCCC1)C(=O)O; Hyp = O=C(O)[C@@H]1C[C@@H](O)CN1; NMeAhp(2) = CCCCC[C@H](NC)C(=O)O; NMeChg = CN[C@H](C(=O)O)C1CCCCC1; NMeF = CN[C@@H](Cc1ccccc1)C(=O)O; NMeI = CC[C@H](C)[C@H](NC)C(=O)O; NMeD = CN[C@@H](CC(=O)O)C(=O)O; NMeL = CN[C@@H](CC(C)C)C(=O)O; Chg = N[C@H](C(=O)O)C1CCCCC1; NMeNva = CCC[C@H](NC)C(=O)O; NMeV = CN[C@H](C(=O)O)C(C)C; d(β3hA) = C[C@@H](N)CC(=O)O; Morpholide = C1CN(*)CCO1; NMeA = CN[C@@H](C)C(=O)O; NMeAib = CNC(C)(C)C(=O)O; Piperidide = C1CCN(*)CC1; Pyrrolidide = C1CCN(*)C1; Ac5c = NC1(C(=O)O)CCCC1; Aze = O=C(O)[C@@H]1CCN1; NEtG = CCNCC(=O)O; Sar = CNCC(=O)O

What was measured:
[1] = tested on: Human pancreatic cancer cell line AsPC-1 (G12D mutation Kras); experiment: AsPC-1 cell growth inhibition (AsPC-1 CGI); assay type: cell-based; settings: read-out: AsPC-1 cell growth inhibition, 50% growth inhibitory concentration (IC50 value); 96 hours, CellTiter-Glo, values classified in ranges
[2] = target: protein-protein interaction between Kras and SOS1 (biotin-tagged human Kras loaded with GDP, His-tagged human SOS1) (Homo sapiens (Human), UniProt P01116, G12D); experiment: Protein-protein interaction inhibition between Kras and SOS1 (KrasG12D-SOS PPI) using AlphaScreen; assay type: biochemical; settings: AlphaScreen; biotin-tagged human Kras loaded with GDP, His-tagged human SOS1; read-out: KRAS G12D-SOS PPI IC50;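 further: kras produced in E. coli, Ni-coupled donor beads and streptavidin acceptor beads, excitation 680 nm with emission detected at 520–620 nm via singlet oxygen transfer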

Row | Compound | IC50 [1] [nM] | IC50 [2] [nM]
1 | CC[C@H](C)[C@@H]1NC(=O)[C@H](CC(C)C)N(C)C(=O)C[C@@H](C(=O)N(C)C)N(C)C(=O)[C@H]([C@@H](C)CC)N(C)C(=O)C2(CCCC2)NC(=O)[C@@H]2CCCN2C(=O)[C@H](CCc2cc(F)c(C(F)(F)F)c(F)c2)NC(=O)CN(C)C(=O)[C@H](Cc2ccc(C)cc2)N(C)C(=O)[C@@H]2CCN2C(=O)[C@H](C)N(C)C1=O [Compound 1080] ([NMeL]I[NMeA][Aze][NMePhe(4-Me)][Sar][hPhe(3,5-F2-4-CF3)]P[Ac5c][NMeI][NMeD]-NMe2; lactam N-11) | ≤ 20 | 1
2 | CC[C@H](C)[C@@H]1NC(=O)[C@H](C)N(C)C(=O)C[C@@H](C)NC(=O)[C@H](C2CCCC2)N(C)C(=O)C2(CCCC2)NC(=O)[C@@H]2CCCN2C(=O)[C@H](CCc2ccc(C(F)(F)F)c(Cl)c2)NC(=O)CN(C)C(=O)[C@H](Cc2cccc(C)c2)N(C)C(=O)[C@@H]2CCCN2C(=O)CN(C)C1=O [Compound 1083] (cyclo([Ac5c][NMeGly(cPent)][d(β3hA)][NMeA]I[Sar]P[NMePhe(3-Me)][Sar][hPhe(3-Cl-4-CF3)]P)) | > 500 | 19
3 | CC[C@H](C)[C@@H]1NC(=O)[C@H](CC(C)C)N(C)C(=O)C[C@@H](C)N(C)C(=O)[C@H](C(C)C)NC(=O)C(C)(C)N(C)C(=O)[C@H](CC(C)C)NC(=O)[C@H](CCc2ccc(C(F)(F)F)c(F)c2)NC(=O)CN(C)C(=O)[C@H](Cc2ccc(Cl)cc2)N(C)C(=O)CN(C)C(=O)CN(C)C1=O [Compound 1084] (cyclo(I[Sar][Sar][NMePhe(4-Cl)][Sar][hPhe(3-F,4-CF3)]L[NMeAib]V[NMedβ3hAla][NMeL])) | > 500 | 53
4 | CC[C@H](C)[C@@H]1NC(=O)[C@H](CC(C)C)N(C)C(=O)C[C@@H](C(=O)N2CCCCC2)N(C)C(=O)[C@H](C2CCCCC2)N(C)C(=O)C2(CCCC2)NC(=O)[C@H](Cc2cncc(C)c2)N(C)C(=O)[C@H](CCc2ccc(C(F)(F)F)c(Cl)c2)NC(=O)CN(C)C(=O)[C@H](CC2CCCCC2)N(C)C(=O)CN(C)C(=O)CN(C)C1=O [Compound 1087] ([NMeL]I[Sar][Sar][NMeCha][Sar][hPhe(3-Cl-4-CF3)][X20][Ac5c][NMeChg][NMeD]-Piperidide; lactam N-11) | > 500 | 15
5 | CC[C@H](C)[C@@H]1NC(=O)[C@H](CC(C)C)N(C)C(=O)C[C@@H](C(=O)N2CCCC2)N(C)C(=O)[C@H](C2CCCC2)N(C)C(=O)C2(CCCC2)NC(=O)[C@@H]2CCCN2C(=O)[C@H](CCc2ccc(C(F)(F)F)c(F)c2)NC(=O)CN(C)C(=O)[C@H](CC2CCCCC2)N(C)C(=O)[C@@H]2CCN2C(=O)[C@H](C)N(C)C1=O [Compound 1091] ([NMeL]I[NMeA][Aze][NMeCha][Sar][hPhe(3-F,4-CF3)]P[Ac5c][NMeGly(cPent)][NMeD]-Pyrrolidide; lactam N-11) | ≤ 20 | 1
6 | CC[C@H](C)[C@@H]1NC(=O)[C@H](CC(C)C)N(C)C(=O)C[C@H]2CCCCN2C(=O)[C@H](CC(C)C)NC(=O)C(C)(C)N(C)C(=O)[C@H](CC(C)C)NC(=O)[C@H](CCc2ccc(C(F)(F)F)c(F)c2)NC(=O)CN(C)C(=O)[C@H](CC2CCCCC2)N(C)C(=O)CN(C)C(=O)CN(C)C1=O [Compound 1095] (cyclo(I[Sar][Sar][NMeCha][Sar][hPhe(3-F,4-CF3)]L[NMeAib]L[dβ3hPip][NMeL])) | > 500 | 46
7 | CC[C@H](C)[C@@H]1NC(=O)[C@H](C)N(C)C(=O)C[C@@H](C)NC(=O)[C@H](C(C)C)N(C)C(=O)[C@H](Cc2ccccc2)N(C)C(=O)[C@H](CC(C)C)N(C)C(=O)[C@H](CCc2ccc(C(F)(F)F)c(F)c2)NC(=O)CN(C)C(=O)[C@H](Cc2ccc(Cl)cc2)N(C)C(=O)CN(C)C(=O)CN(C)C1=O [Compound 1105] (cyclo(I[Sar][Sar][NMePhe(4-Cl)][Sar][hPhe(3-F,4-CF3)][NMeL][NMeF][NMeV][d(β3hA)][NMeA])) | > 500 | 21
8 | CCCCC[C@H]1C(=O)N[C@@H]([C@@H](C)CC)C(=O)N[C@@H](C)C(=O)N2CC[C@H]2C(=O)N(C)[C@@H](CC2CCCCC2)C(=O)N(C)CC(=O)N[C@@H](CCc2ccc(C(F)(F)F)c(F)c2)C(=O)N2CCC[C@H]2C(=O)NC2(CCCC2)C(=O)N(C)[C@@H](C2CCCC2)C(=O)N(C)[C@H](C(=O)N(C)C)CC(=O)N1C [Compound 1117] ([NMeAhp(2)]IA[Aze][NMeCha][Sar][hPhe(3-F,4-CF3)]P[Ac5c][NMeGly(cPent)][NMeD]-NMe2; lactam N-11) | ≤ 20 | 2.2
9 | CC[C@H](C)[C@@H]1NC(=O)[C@H](CC(C)C)N(C)C(=O)C[C@@H](C(=O)N(C)C)N(C)C(=O)[C@H]([C@@H](C)CC)N(C)C(=O)C2(CCCC2)NC(=O)[C@@H]2CCCN2C(=O)[C@H](CCc2ccc(C(F)(F)F)c(Cl)c2)NC(=O)CN(CC)C(=O)[C@H](Cc2ccc(C)cc2)N(C)C(=O)[C@@H]2CCN2C(=O)[C@H](C)N(C)C1=O [Compound 1120] ([NMeL]I[NMeA][Aze][NMePhe(4-Me)][NEtG][hPhe(3-Cl-4-CF3)]P[Ac5c][NMeI][NMeD]-NMe2; lactam N-11) | ≤ 20 | 2.5
10 | CC[C@H](C)[C@@H]1NC(=O)[C@H](CC(C)C)N(C)C(=O)C[C@@H](C(=O)N2CCCCC2)N(C)C(=O)[C@H](CCCCC(F)F)N(C)C(=O)C2(CCCC2)NC(=O)[C@@H]2CCCN2C(=O)[C@H](CCc2ccc(C(F)(F)F)c(Cl)c2)NC(=O)CN(C)C(=O)[C@H](CC2CCCCC2)N(C)C(=O)[C@@H]2CCN2C(=O)[C@H](C)N(C)C1=O [Compound 1123] ([NMeL]I[NMeA][Aze][NMeCha][Sar][hPhe(3-Cl-4-CF3)]P[Ac5c][NMeNle(6-CHF2)][NMeD]-Piperidide; lactam N-11) | > 500 | 180
11 | CC[C@H](C)[C@@H]1NC(=O)[C@H](C)N(C)C(=O)C[C@@H](C(=O)N2CCCCC2)N(C)C(=O)[C@H](C(C)C)N(C)C(=O)C2(CCCC2)NC(=O)[C@H](Cc2ccccc2)NC(=O)[C@H](CCc2ccc(C(F)(F)F)c(Cl)c2)NC(=O)CN(C)C(=O)[C@H](CC2CCCCC2)N(C)C(=O)CN(C)C(=O)CN(C)C1=O [Compound 1125] ([NMeA]I[Sar][Sar][NMeCha][Sar][hPhe(3-Cl-4-CF3)]F[Ac5c][NMeV][NMeD]-Piperidide; lactam N-11) | > 500 | 2.5
12 | CCC[C@H]1C(=O)N[C@@H]([C@@H](C)CC)C(=O)N(C)[C@@H](C)C(=O)N2CC[C@H]2C(=O)N(C)[C@@H](CC2CCCCC2)C(=O)N(C)CC(=O)N[C@@H](CCc2ccc(C(F)(F)F)c(Cl)c2)C(=O)N2CCC[C@H]2C(=O)NC2(CCCC2)C(=O)N(C)[C@@H]([C@@H](C)CC)C(=O)N(C)[C@H](C(=O)N2CCCCC2)CC(=O)N1C [Compound 1132] ([NMeNva]I[NMeA][Aze][NMeCha][Sar][hPhe(3-Cl-4-CF3)]P[Ac5c][NMeI][NMeD]-Piperidide; lactam N-11) | ≤ 20 | 1.3
13 | CC(C)C[C@@H]1NC(=O)C(C)(C)N(C)C(=O)[C@H](CC(C)C)NC(=O)[C@H](CCc2ccc(C(F)(F)F)c(F)c2)NC(=O)CN(C)C(=O)[C@H](Cc2ccc(Cl)cc2)N(C)C(=O)CN(C)C(=O)CN(C)C(=O)[C@H](C2CCCCC2)NC(=O)[C@H](CC(C)C)N(C)C(=O)C[C@@H](C)N(C)C1=O [Compound 1133] (cyclo([Chg][Sar][Sar][NMePhe(4-Cl)][Sar][hPhe(3-F,4-CF3)]L[NMeAib]L[NMedβ3hAla][NMeL])) | > 500 | 56
14 | CCO[C@@H]1C[C@H]2C(=O)NC3(CCCC3)C(=O)N(C)[C@@H](C3CCCCC3)C(=O)N(C)[C@H](C(=O)N3CCCC3)CC(=O)N(C)[C@@H](C3CCC3)C(=O)N[C@@H]([C@@H](C)CC)C(=O)N(C)CC(=O)N(C)CC(=O)N(C)[C@@H](CC3CCCCC3)C(=O)N(C)CC(=O)N[C@@H](CCc3cc(F)c(C(F)(F)F)c(F)c3)C(=O)N2C1 [Compound 1144] ([NMeGly(cBu)]I[Sar][Sar][NMeCha][Sar][hPhe(3,5-F2-4-CF3)][Hyp](Et)[Ac5c][NMeChg][NMeD]-Pyrrolidide; lactam N-11) | ≤ 20 | 0.49
15 | CCO[C@@H]1C[C@H]2C(=O)NC3(CCCC3)C(=O)N(C)[C@@H](C3CCCCC3)C(=O)N(C)[C@H](C(=O)N3CCCC3)CC(=O)N(C)[C@@H](CC(F)(F)F)C(=O)N[C@@H]([C@@H](C)CC)C(=O)N(C)CC(=O)N(C)CC(=O)N(C)[C@@H](CC3CCCCC3)C(=O)N(C)CC(=O)N[C@@H](CCc3cc(F)c(C(F)(F)F)c(F)c3)C(=O)N2C1 [Compound 1149] ([NMeAbu(4,4,4-F3)]I[Sar][Sar][NMeCha][Sar][hPhe(3,5-F2-4-CF3)][Hyp](Et)[Ac5c][NMeChg][NMeD]-Pyrrolidide; lactam N-11) | ≤ 20 | 0.62
16 | CC[C@H](C)[C@@H]1NC(=O)[C@H](CC(C)C)N(C)C(=O)C[C@@H](C(=O)N2CCOCC2)N(C)C(=O)[C@H]([C@@H](C)CC)N(C)C(=O)C2(CCCC2)NC(=O)[C@@H]2CCCN2C(=O)[C@H](CCc2ccc(C(F)(F)F)c(Cl)c2)NC(=O)CN(CC)C(=O)[C@H](Cc2ccc(C(F)(F)F)cc2)N(C)C(=O)[C@@H]2CCN2C(=O)[C@H](C)N(C)C1=O [Compound 1151] ([NMeL]I[NMeA][Aze][NMePhe(4-CF3)][NEtG][hPhe(3-Cl-4-CF3)]P[Ac5c][NMeI][NMeD]-Morpholide; lactam N-11) | ≤ 20 | 5.2
